# Results published in ChEMBL document CHEMBL1201862, “PubChem BioAssay data set” (2004).
#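 Tested at 5 concentrations; 48 h exposure; 96-well plates; endpoints linearly interpolated, else capped at highest concentration. At the GI50, growth is halved.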 Active and inactive are the calls of the source. No stated cut-off is given here; in the data, active = GI50 up to about 1.1 µM and inactive = higher.
# Legend:
# Assay in all cases: growth of human tumour cells (NCI), 48 h
# UO-31 = tested on: UO-31
# DU-145 = tested on: DU-145
# SR = tested on: SR
# SK-MEL-28 = tested on: SK-MEL-28
# IGROV-1 = tested on: IGROV-1
# MOLT-4 = tested on: MOLT-4
# NCI/ADR-RES = tested on: NCI/ADR-RES
# TK-10 = tested on: TK-10
# KM12 = tested on: KM12
# M14 = tested on: M14
# UACC-62 = tested on: UACC-62
# 786-0 = tested on: 786-0
# MCF7 = tested on: MCF7
# SK-OV-3 = tested on: SK-OV-3
# OVCAR-8 = tested on: OVCAR-8
# SNB-19 = tested on: SNB-19
# OVCAR-4 = tested on: OVCAR-4
# A549 = tested on: A549
# SNB-75 = tested on: SNB-75
# OVCAR-3 = tested on: OVCAR-3
# OVCAR-5 = tested on: OVCAR-5
# SW-620 = tested on: SW-620
# T47D = tested on: T47D
# HOP-92 = tested on: HOP-92
# MDA-MB-435 = tested on: MDA-MB-435
# SF-268 = tested on: SF-268
# UACC-257 = tested on: UACC-257
# DMS-273 = tested on: DMS-273
# HCT-116 = tested on: HCT-116
# SF-295 = tested on: SF-295
# ACHN = tested on: ACHN
# U-251 = tested on: U-251
# RPMI-8226 = tested on: RPMI-8226
# HL-60 = tested on: HL-60
# HT-29 = tested on: HT-29
# M19-MEL = tested on: M19-MEL
# COLO 205 = tested on: COLO 205
# NCI-H522 = tested on: NCI-H522
# SN12C = tested on: SN12C
# PC-3 = tested on: PC-3
# LXFL 529 = tested on: LXFL 529
# NCI-H226 = tested on: NCI-H226
# HCC 2998 = tested on: HCC 2998
# CAKI-1 = tested on: CAKI-1
# SNB-78 = tested on: SNB-78
# RXF 631 = tested on: RXF 631
# EKVX = tested on: EKVX
# DMS-114 = tested on: DMS-114
# LOX IMVI = tested on: LOX IMVI
# HOP-18 = tested on: HOP-18
# XF498 = tested on: XF498
# MDA-N = tested on: MDA-N
# HCT-15 = tested on: HCT-15
# NCI-H460 = tested on: NCI-H460
# KM-20L2 = tested on: KM-20L2
# SF-539 = tested on: SF-539
# NCI-H23 = tested on: NCI-H23
# SK-MEL-2 = tested on: SK-MEL-2
# RXF 393 = tested on: RXF 393
# MDA-MB-231 = tested on: MDA-MB-231
# Malme-3M = tested on: Malme-3M
# CCRF-CEM = tested on: CCRF-CEM
# DLD-1 = tested on: DLD-1
# HOP-62 = tested on: HOP-62
# SK-MEL-5 = tested on: SK-MEL-5
# K562 = tested on: K562
smiles,measurement,setting,value
CC(C)CCCCCCCCCCCCC(=O)NCC(=O)NC1C(C)OC(Nc2[nH]cnc3ncnc2-3)C(O)C1O (stereo unspecified),GI50,UO-31,0.381 nM (active)
same,GI50,DU-145,2.2 nM (active)
same,GI50,SR,1.53 nM (active)
same,GI50,SK-MEL-28,< 10 nM (active)
same,GI50,IGROV-1,0.782 nM (active)
same,GI50,MOLT-4,1.02 nM (active)
same,GI50,NCI/ADR-RES,2.21 nM (active)
same,GI50,TK-10,1.02 nM (active)
same,GI50,KM12,0.341 nM (active)
same,GI50,M14,0.487 nM (active)
same,GI50,UACC-62,< 10 nM (active)
same,GI50,786-0,0.491 nM (active)
same,GI50,MCF7,< 10 nM (active)
same,GI50,SK-OV-3,< 10 nM (active)
same,GI50,OVCAR-8,0.153 nM (active)
same,GI50,SNB-19,2.1 nM (active)
same,GI50,OVCAR-4,0.98 nM (active)
same,GI50,A549,1.28 nM (active)
same,GI50,SNB-75,0.535 nM (active)
same,GI50,OVCAR-3,0.173 nM (active)
same,GI50,OVCAR-5,1.23 nM (active)
same,GI50,SW-620,1.01 nM (active)
same,GI50,T47D,2.35 nM (active)
same,GI50,HOP-92,0.28 nM (active)
same,GI50,MDA-MB-435,5.71 nM (active)
same,GI50,SF-268,0.635 nM (active)
same,GI50,UACC-257,< 10 nM (active)
same,GI50,DMS-273,< 10 nM (active)
same,GI50,HCT-116,0.244 nM (active)
same,GI50,SF-295,2.34 nM (active)
same,GI50,ACHN,0.468 nM (active)
same,GI50,U-251,0.425 nM (active)
same,GI50,RPMI-8226,0.568 nM (active)
same,GI50,HL-60,0.746 nM (active)
same,GI50,HT-29,1.25 nM (active)
same,GI50,M19-MEL,< 10 nM (active)
same,GI50,COLO 205,0.622 nM (active)
same,GI50,NCI-H522,2.73 nM (active)
same,GI50,SN12C,2.14 nM (active)
same,GI50,PC-3,4.33 nM (active)
same,GI50,LXFL 529,0.588 nM (active)
same,GI50,NCI-H226,2.4 nM (active)
same,GI50,HCC 2998,0.331 nM (active)
same,GI50,CAKI-1,< 10 nM (active)
same,GI50,SNB-78,0.646 nM (active)
same,GI50,RXF 631,0.0354 nM (active)
same,GI50,EKVX,5.75 nM (active)
same,GI50,DMS-114,< 31.6 nM (active)
same,GI50,LOX IMVI,0.262 nM (active)
same,GI50,HOP-18,< 10 nM (active)
same,GI50,XF498,< 10 nM (active)
same,GI50,MDA-N,< 10 nM (active)
same,GI50,HCT-15,< 24.7 nM
same,GI50,NCI-H460,0.158 nM (active)
same,GI50,KM-20L2,< 10 nM (active)
same,GI50,SF-539,0.931 nM (active)
same,GI50,NCI-H23,5.36 nM (active)
same,GI50,SK-MEL-2,3.85 nM (active)
same,GI50,RXF 393,< 10 nM (active)
same,GI50,MDA-MB-231,< 10 nM (active)
same,GI50,Malme-3M,0.332 nM (active)
same,GI50,CCRF-CEM,4.8 nM (active)
same,GI50,DLD-1,10 nM (active)
same,GI50,HOP-62,0.361 nM (active)
same,GI50,SK-MEL-5,2.89 nM (active)
same,GI50,K562,6.44 nM (active)
